Test results as given in PubChem BioAssay AID328 (DTP/NCI, 2004).
Several values for one entry are separate records, joined by “and”; a condition that tells them apart may be missing. Identical values can stand only once. Toxic doses and inconclusive results are not listed. The calls were made as follows: active = survival T/C of 150% or more; inactive = T/C below 125% in these data.

System: BDF1 mice, P388 leukemia ip, median survival T/C
Experiment: NCI In Vivo Anticancer Drug Screen. Data for tumor model P388 Leukemia (intraperitoneal) in B6D2F1 (BDF1) mice
Conditions: endpoint: median survival time, higher = longer survival
In short: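 Vehicle-dosed animals serve as the reference; survival of compound-dosed, tumour-implanted mice is divided by it.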

[1] = dose: 100.0 mg/kg/injection, schedule: Q01DX009 (ip), vehicle: Klucel (hydroxypropylcellulose) (HPC)
[2] = dose: 200.0 mg/kg/injection, schedule: Q01DX009 (ip), vehicle: Klucel (hydroxypropylcellulose) (HPC)
[3] = dose: 50.0 mg/kg/injection, schedule: Q01DX009 (ip), vehicle: saline
[4] = dose: 100.0 mg/kg/injection, schedule: Q01DX009 (ip), vehicle: saline
[5] = dose: 200.0 mg/kg/injection, schedule: Q01DX009 (ip), vehicle: saline
[6] = dose: 50.0 mg/kg/injection, schedule: Q01DX009 (ip), vehicle: saline with Tween-80
[7] = dose: 100.0 mg/kg/injection, schedule: Q01DX009 (ip), vehicle: saline with Tween-80
[8] = dose: 200.0 mg/kg/injection, schedule: Q01DX009 (ip), vehicle: saline with Tween-80
[9] = dose: 100.0 mg/kg/injection, schedule: Q04DX003 (ip), vehicle: saline
[10] = dose: 200.0 mg/kg/injection, schedule: Q04DX003 (ip), vehicle: saline

Measured: T/C

COC(=O)[C@@H]1[C@H](O)[C@H](C)[C@H](O)[C@H](C)/C=C\C=C(C)C(=O)Nc2c(C)c(OC(C)=O)c3c(c2O)C(=O)C(C)=C2OCOC(=C23)C(C)=C[C@@](C)(O)[C@H](O)[C@@H](C)[C@H]1OC(C)=O
inactive: dose: 50.0 mg/kg/injection, schedule: Q01DX009 (ip), vehicle: saline + alcohol 95 % of control | [1] 106 % of control | dose: 100.0 mg/kg/injection, schedule: Q01DX009 (ip), vehicle: saline + alcohol 99 % of control | [2] 116 % of control and 123 % of control | dose: 200.0 mg/kg/injection, schedule: Q01DX009 (ip), vehicle: saline + alcohol 95 % of control | dose: 400.0 mg/kg/injection, schedule: Q01DX009 (ip), vehicle: Klucel (hydroxypropylcellulose) (HPC) 115 % of control | dose: 400.0 mg/kg/injection, schedule: Q01DX009 (ip), vehicle: saline + alcohol 100 % of control

CC(=N\O)/C(C)=N/O.CC(=N\O)/C(C)=N/O.[Br][Rh][Br]
inactive: dose: 25.0 mg/kg/injection, schedule: Q01DX009 (ip), vehicle: saline 99 % of control | [3] 100 % of control | [4] 119 % of control and 92 % of control | [5] 110 % of control and 99 % of control and 100 % of control | dose: 400.0 mg/kg/injection, schedule: Q01DX009 (ip), vehicle: saline 100 % of control

C=CCN1C(=O)CNC1=O
inactive: [3] 93 % of control | [4] 100 % of control | [5] 101 % of control

O=C(Nc1ccccc1)c1c(-c2ccccc2)oc2ccccc2c1=O
inactive: dose: 50.0 mg/kg/injection, schedule: Q04DX002 (ip), vehicle: saline with Tween-80 95 % of control | dose: 100.0 mg/kg/injection, schedule: Q04DX002 (ip), vehicle: saline with Tween-80 115 % of control | dose: 200.0 mg/kg/injection, schedule: Q04DX002 (ip), vehicle: saline with Tween-80 100 % of control

CN(C)CCOCN1COCC1(C)C
inactive: [6] 120 % of control

COCC12CCC(OC)C34C5CC6(O)C(OC)CC(OC(C)=O)(C5C6OC(=O)c5ccccc5)C(C(OC)C13)C4N(C)C2 (stereo not drawn)
inactive: dose: 0.13 mg/kg/injection, schedule: Q01DX009 (ip), vehicle: Klucel (hydroxypropylcellulose) (HPC) 93 % of control | dose: 0.25 mg/kg/injection, schedule: Q01DX009 (ip), vehicle: Klucel (hydroxypropylcellulose) (HPC) 88 % of control | dose: 0.5 mg/kg/injection, schedule: Q01DX009 (ip), vehicle: Klucel (hydroxypropylcellulose) (HPC) 102 % of control | dose: 1.0 mg/kg/injection, schedule: Q01DX009 (ip), vehicle: Klucel (hydroxypropylcellulose) (HPC) 102 % of control

OC(CCl)C(O)C(O)C(O)CCl (stereo not drawn)
inactive: [7] 100 % of control | [8] 113 % of control | dose: 400.0 mg/kg/injection, schedule: Q01DX009 (ip), vehicle: saline with Tween-80 100 % of control

CN(C)P1(=O)OCCN1N (stereo not drawn)
inactive: dose: 50.0 mg/kg/injection, schedule: Q04DX003 (ip), vehicle: saline 109 % of control | [9] 109 % of control | [10] 104 % of control

CN1C(=O)C(=Cc2ccc(N(C)C)cc2)C(=O)N(C)C1=O
inactive: [6] 103 % of control | [7] 99 % of control | [8] 98 % of control

CCc1cccc(CC)c1N1C(=O)C=CC1=O
inactive: dose: 1.56 mg/kg/injection, schedule: Q01DX009 (ip), vehicle: saline with Tween-80 114 % of control | dose: 3.13 mg/kg/injection, schedule: Q01DX009 (ip), vehicle: saline with Tween-80 100 % of control | dose: 6.25 mg/kg/injection, schedule: Q01DX009 (ip), vehicle: saline with Tween-80 106 % of control | dose: 12.5 mg/kg/injection, schedule: Q01DX009 (ip), vehicle: saline with Tween-80 99 % of control

OC(C1CCCCC1)(C1CCCCC1)C1CCCCC1
inactive: dose: 100.0 mg/kg/injection, schedule: Q01DX009 (ip), vehicle: other 104 % of control | dose: 100.0 mg/kg/injection, schedule: Q04DX003 (ip), vehicle: Klucel (hydroxypropylcellulose) (HPC) 91 % of control | dose: 200.0 mg/kg/injection, schedule: Q01DX009 (ip), vehicle: other 100 % of control | dose: 200.0 mg/kg/injection, schedule: Q04DX003 (ip), vehicle: Klucel (hydroxypropylcellulose) (HPC) 100 % of control | dose: 400.0 mg/kg/injection, schedule: Q01DX009 (ip), vehicle: other 109 % of control | dose: 400.0 mg/kg/injection, schedule: Q04DX003 (ip), vehicle: Klucel (hydroxypropylcellulose) (HPC) 91 % of control

CC[CH2][Pb]([CH2]CC)([CH2]CC)[N]1C(=O)c2ccccc2C1=O
inactive: dose: 3.12 mg/kg/injection, schedule: Q01DX009 (ip), vehicle: Klucel (hydroxypropylcellulose) (HPC) 108 % of control and 123 % of control | dose: 6.25 mg/kg/injection, schedule: Q01DX009 (ip), vehicle: Klucel (hydroxypropylcellulose) (HPC) 110 % of control and 123 % of control | dose: 12.5 mg/kg/injection, schedule: Q01DX009 (ip), vehicle: Klucel (hydroxypropylcellulose) (HPC) 123 % of control

COc1cc[n+]([O-])cc1
inactive: [9] 95 % of control | [10] 95 % of control | dose: 400.0 mg/kg/injection, schedule: Q04DX003 (ip), vehicle: saline 100 % of control

CCN(c1ccc(C=O)cc1)c1ccc([N+](=O)[O-])cc1[N+](=O)[O-]
inactive: dose: 50.0 mg/kg/injection, schedule: Q01DX009 (ip), vehicle: Klucel (hydroxypropylcellulose) (HPC) 99 % of control | [1] 97 % of control | [2] 97 % of control

N#CC(Br)(Br)C(N)=O
inactive: dose: 2.5 mg/kg/injection, schedule: Q01DX009 (ip), vehicle: saline 115 % of control | dose: 5.0 mg/kg/injection, schedule: Q01DX009 (ip), vehicle: saline 102 % of control
